From paper PMC9529985, “Eco-friendly methods of synthesis and preliminary biological evaluation of sulfonamide derivatives of cyclic arylguanidines” (Ultrasonics Sonochemistry, 2022)
Read-outs that look alike come from different tables or passages of the source.

Tests used:
[1] = tested on: human breast adenocarcinoma cell line MDA-MB-231; assay: MTS cytotoxicity test in MDA-MB-231 cells; assay type: cell-based; conditions: 24 h, read-out: IC50 (cell viability)
Method: The cytotoxic properties of newly synthetized compounds were assessed in human astrocytoma cell line 1321 N1 (RRID:CVCL_0110, European Collection of Authenticated Cell Cultures, ECACC:86030402) and human breast adenocarcinoma cell line MDA-MB-231 (RRID:CVCL_0062; ATCC:HTB-26). ECACC and ATCC perform thorough cell line authentication utilizing Short Tandem Repeat (STR) profiling. Upon receipt of the cell lines, the cells were expanded for a few passages to enable the generation of new frozen stocks. The cells were resuscitated as needed and used for<6 months after resuscitation (no>15 passages). Cell line 1321 N1 was cultured in high-glucose (4500 mg/L) Dulbecco's modified Eagle's medium (DMEM) supplemented with 10 % fetal bovine serum (FBS). The MDA-MB-231 cells were maintained in RPMI-1640 with 10 % FBS. […]
The cells were subcultured upon reaching the confluency of about 80 %. […] The cells were counted in a Z2 particle counter (Beckman Coulter), then plated at 5,000 cells/well in 96-well plates (Eppendorf) in 100 µL of full growth medium and cultured overnight to enable cell attachment. […] After 3 h of incubation, the absorbance was recorded at 490 nm using Synergy H1 plate reader (Biotek) The experiments were carried out in quadruplicates and were repeated three times. […]

[2] = tested on: human astrocytoma cell line 1321 N1; assay: MTS cytotoxicity test in 1321 N1 astrocytoma cells; assay type: cell-based; conditions: 1321 N1 cells; for viability of the cells compared to vehicle control: 24 h exposure; for IC50 / concentration at which activity (statistically significant suppression of cell viability) was seen: MTS; for IC50: 50 % decrease relative to the maximum inhibition observed, read-out: IC50 (cell viability)
Method: The cytotoxic properties of newly synthetized compounds were assessed in human astrocytoma cell line 1321 N1 (RRID:CVCL_0110, European Collection of Authenticated Cell Cultures, ECACC:86030402) and human breast adenocarcinoma cell line MDA-MB-231 (RRID:CVCL_0062; ATCC:HTB-26). ECACC and ATCC perform thorough cell line authentication utilizing Short Tandem Repeat (STR) profiling. Upon receipt of the cell lines, the cells were expanded for a few passages to enable the generation of new frozen stocks. The cells were resuscitated as needed and used for<6 months after resuscitation (no>15 passages). Cell line 1321 N1 was cultured in high-glucose (4500 mg/L) Dulbecco's modified Eagle's medium (DMEM) supplemented with 10 % fetal bovine serum (FBS). The MDA-MB-231 cells were maintained in RPMI-1640 with 10 % FBS. All cell culture media were additionally fortified with penicillin (100 U/mL), streptomycin (100 µg/mL), and amphotericin B (250 ng/mL) to prevent bacterial and yeast contamination. The cell culture media and supplements used in this study were purchased from Sigma-Aldrich. The cells were maintained at 37 °C in a humidified […] incubator in an atmosphere of 5 % CO2 and 95 % air.
The cells were subcultured upon reaching the confluency of about 80 %. Cell detachment was facilitated with TrypLE solution (Thermo Fisher Scientific). The cells were counted in a Z2 particle counter (Beckman Coulter), then plated at 5,000 cells/well in 96-well plates (Eppendorf) in 100 µL of full growth medium and cultured overnight to enable cell attachment. Next day, the cells were subjected to either vehicle (0.1 % DMSO) or our compounds of interest for 24, 48, or 72 h. The assessment of cell viability was performed by adding 20 µL/well of the mixture of 3-(4,5-dimethylthiazol-2-yl)-5-(3-carboxymethoxyphenyl)-2-(4-sulfophenyl)–2H-tetrazolium, inner salt (MTS) and phenazine ethosulfate from Promega (#G3580). After 3 h of incubation, the absorbance was recorded at 490 nm using Synergy H1 plate reader (Biotek) The experiments were carried out in quadruplicates and were repeated three times. The obtained values were normalized to vehicle control and plotted.
The IC50 values were calculated with GraphPad Prism 8.0.1 software (nonlinear regression, log(inhibitor) vs normalized response) as the dose that causes a 50 % decrease in cell viability relative to the maximum inhibition observed. Statistical significance determination was evaluated with GraphPad Prism 5.0.1 software using one-way ANOVA, followed by Bonferroni’s comparison test (p < 0.05).

[3] = PAMPA passive permeability; assay type: in vitro ADME; conditions: PBS pH 7.4, 5 h, room temperature
Method: The ADME-Tox parameters of 10f were analyzed according to described previously protocols, [45] and included: Parallel Artificial Membrane Permeability Assay (PAMPA) passive permeability testing, the influence on CYP3A4 activity, metabolic stability in mouse liver microsomes, and hepatotoxicity assessment with HepG2 cells. The pre-coated PAMPA Plate System Gentest was sourced from Corning (Tewksbury, MA, USA). […] The plate was incubated at room temperature for 5 h without stirring. Then, 50 μL was aspirated from both Acceptor (A) and Donor (D) wells and then diluted with a 50 µL solution of an internal standard (IS). The concentrations of the tested compounds in the A and D wells were estimated with an LC/MS Waters ACQUITY™ TQD system with the TQ Detector (Waters, Milford, USA). The Pe values were estimated according to the proper formulas provided by Corning and described previously in the literature.

[4] = Metabolic stability in mouse liver microsomes (MLMs); assay type: in vitro ADME; conditions: for Metabolic pathway: metabolites identified by UPLC-MS; for remaining at 2 h, 50 µM: mouse, liver microsomes, MLMs 1 mg/ml
Method: The ADME-Tox parameters of 10f were analyzed according to described previously protocols, [45] and included: Parallel Artificial Membrane Permeability Assay (PAMPA) passive permeability testing, the influence on CYP3A4 activity, metabolic stability in mouse liver microsomes, and hepatotoxicity assessment with HepG2 cells.
The metabolic stability of 10f was estimated with mouse liver microsomes (MLMs) (Sigma-Aldrich, St. Louis, MO, USA). The tested compound (50 µM) was incubated in the presence of MLMs (1 mg/ml) for 120 min in a buffer (10 mM Tris–HCl buffer at 37 °C). Then, to terminate the reaction, cold methanol was added to the reaction mixture. The precipitated MLMs were centrifuged and the supernatant was analyzed with a LC/MS Waters ACQUITY™ TQD system with the TQ Detector (Waters, Milford, USA).

[5] = tested on: HepG2 human hepatoma cell line; assay: Hepatotoxicity, MTS assay in HepG2 cells; assay type: cell-based; conditions: 72 h (Fig. 6 legend)
Method: Hepatotoxicity was evaluated by means of an MTS assay described above (section 23) with a HepG2 human hepatoma cell line (ATCC:HB-8065), [48]. […] Compound 10f was tested in a single experiment in quadruplicate.

[6] = Metabolic stability in mouse liver microsomes (MLMs); assay type: in vitro ADME; conditions: TRIS-HCl pH 7.4 buffer solution without microsomes, 120 min

With Nc1nc2ccccc2n1S(=O)(=O)c1ccc2ccccc2c1 [11c, 1-(naphthalene-2-sulfonyl)-1H-benzimidazol-2-amine] the melting point was 188 to 194 °C.
With O=S(=O)(NC1=NCc2cc(Cl)ccc2N1)c1ccc2ccccc2c1 [10h, N-(6-chloro-1,4-dihydroquinazolin-2-yl)naphthalene-2-sulfonamide] the melting point was 207 to 209 °C.
In the case of COc1cccc2c1C(=O)c1c(O)c3c(c(O)c1C2=O)C[C@@](O)(C(=O)CO)C[C@@H]3O[C@H]1C[C@H](N)[C@H](O)[C@H](C)O1 [doxorubicin, reference compound], the IC50 [1] is reported as 1400 nM, the “viability of the cells compared to vehicle control” value [2] is reported as 47.5% and the IC50 ([2]; Homo sapiens, 24 h) is reported as 1100 nM.
Compound O=S(=O)(NC1=NCc2ccccc2N1)c1ccccc1 [10e, N-(1,4-dihydroquinazolin-2-yl)benzenesulfonamide] has a melting point of 182 to 186 °C.
With Cn1c(=O)c2c(ncn2C)n(C)c1=O [caffeine, reference compound] the “permeability coefficient Pe” value ([3]; 200 µM) was 12.2 ± 0.9 × 10^-6 cm/s.
For O=S(=O)(NC1=NCc2ccccc2N1)c1ccc2ccccc2c1 [10g, N-(1,4-dihydroquinazolin-2-yl)naphthalene-2-sulfonamide], the melting point was over 300 °C.
In the case of O=S(=O)(NC1=NCc2ccccc2N1)c1cccc2ccccc12 [10f, N-(1,4-dihydroquinazolin-2-yl)naphthalene-1-sulfonamide], the “metabolic stability (in words)” value ([4]; MLMs, 120 min) is reported as “unstable”, the metabolized ([4]; MLMs, 120 min incubation, UPLC) is reported as 97% and the Metabolic pathway ([4]; MLMs) is reported as “double hydroxylation and double bound reduction”. For the same compound, the remaining at 2 h, 50 µM ([4]; 120 min) was 3%, the “concentration at which activity (statistically significant suppression of cell viability) was seen” value ([2]; 24 h) was 1 µM and the “viability of the cells compared to vehicle control” value [2] was 48.0%. For the same compound, the IC50 ([2]; Homo sapiens, 24 h) was 8220 nM, the viability at 50 µM ([2]; Homo sapiens, 72 h, 50 µM, read-out: cells still viable) was 32% and the IC50 ([2]; Homo sapiens, 72 h) was 130 nM. For the same compound, the “hepatotoxicity (in words)” value ([5]; HepG2, 1–10 µM) was “did not exhibit hepatotoxic properties”, the “effect on cell viability (in words)” value ([5]; HepG2, 50 or 100 µM) was “statistically significant decrease in cells viability” and the “dehydrogenation in control sample” value [6] was 5%. For the same compound, the Papp at 5 h, 200 µM ([3]; read-out: permeability coefficient Pe) was 5 ± 1.5 ×10⁻⁶ cm/s.
With O=S(=O)(Nc1nc2ccccc2[nH]1)c1ccccc1 [10a, N-(1H-benzimidazol-2-yl)benzenesulfonamide] the melting point was over 300 °C.
In the case of O=S(=O)(Nc1ncc2ccccc2n1)c1cccc2ccccc12 [Dehydrogenated-10f, N-(quinazolin-2-yl)naphthalene-1-sulfonamide], the Metabolic pathway ([4]; MLMs) is reported as “double hydroxylation” and the remaining at 2 h, 50 µM ([4]; 120 min) is reported as 17.5%.
With Nc1nc2cc(Cl)ccc2n1S(=O)(=O)c1cccc2ccccc12 [11d, 5-chloro-1-(naphthalene-1-sulfonyl)-1H-benzimidazol-2-amine] the “concentration at which activity (statistically significant suppression of cell viability) was seen” value ([2]; 24 h) was 1 µM and the melting point was 225 to 229 °C.
